Results as given in patent US4117230A, “Hydantoin derivatives as therapeutic agents” (priority 1977, dated 1978).
Counter-ions that a name gives are not always drawn.

What was measured:
[1] = tested on: sorbitol accumulation in the sciatic nerve of streptozotocinized (i.e., diabetic) rats; assay: inhibition of sorbitol accumulation in the sciatic nerve of acutely streptozotocinized (diabetic) rats; format: in vivo, rat; conditions: measured at 27 h, vs untreated
Description: (§1) The activity of the compounds of the present invention, as agents for the control of chronic diabetic complications, is determined by their ability to successfully pass one or more of the following standard biological and/or pharmacological tests, viz., (1) measuring their ability to inhibit the enzyme activity of isolated aldose reductase; (2) measuring their ability to reduce or inhibit sorbitol accumulation in the sciatic nerve of acutely sterptozotocinized (i.e., diabetic) rats; (3) measuring their ability to reverse already-elevated sorbitol levels in the sciatic nerve and lens of chronic streptozotocin-induced diabetic rats; (4) measuring their ability to prevent or inhibit galactitol formation in the lens of acutely galactosemic rats, and (5) measuring their ability to delay cataract formation and reduce the severity of lens opacities in chronic galactosemic rats.
The following spiro-hydantoin compounds of Preparation C and Examples I-V, VII-IX, XI-XVII, XIX-XXV, XXVII and XXX-XXXIII, respectively, were tested for their ability to reduce or inhibit sorbitol accumulation in the sciatic nerve of streptozotocinized (i.e., diabetic) rats by the procedure essentially described in U.S. Pat. No. 3,821,383. In the present study, the amount of sorbitol accumulation in the sciatic nerves was measured 27 hours after induction of diabetes. The compounds were administered orally at the dose levels indicated at 4, 8 nd 24 hours following the administration of streptozotocin. The results obtained in this manner are presented below in terms of percent inhibition (%) afforded by the test compound as compared to the case where no compound was administered (i.e., the untreated animal where sorbitol levels normally rise from approximately […]. tissue to as high as […]. tissue in the 27-hour test period): […]

[2] = tested on: lenticular opacities in galactosemic rats; assay: severity of lenticular opacities in galactosemic rats (percentage of lens area involved); format: in vivo, rat; conditions: for lenses with area of involvement never less than 10%: 17 days, control 75%
Description: as §1
(§2) To determine the effect of 6-fluoro-spiro-[chroman-4,4'-imidazolidine]-2',5'-dione on cataract formation in galactosemis, rats were fed a 30% galactose diet with and without this compound for a period of 29 days and eye examinations also were routinely conducted approximately twice a week throughout this period. The experimental animals received the test compound mixed in the food at concentration levels necessary to afford approximate doses of 10 mg./kg. and 20 mg./kg., respectively. Control animals received the galactose diet alone (i.e., without the compound). […] The corresponding value obtained in rats receiving the test compound at 20 mg./kg. was 0%.
The effectiveness of 6-fluoro-spiro-[chroman-4,4'-imidazolidine]-2',5'-dione in delaying cataract development in rats is further highlighted by the test producedure of Example XLIV by giving careul consideration to the severity of the lenticular opacities involved. In this study, the percentage of lens areas involved were monitored throughout the 29-day period and the results obtained served as an index of severity. […]

[3] = tested on: cataract formation in galactosemic rats; assay: delay of cataract formation in galactosemic rats (incidence of lenticular opacities); format: in vivo, rat; conditions: 30% galactose diet
Description: as §1, §2

[4] = tested on: sorbitol levels in the sciatic nerve and the lens of streptozotocin-induced diabetic rats; assay: reversal of already-elevated sorbitol levels in sciatic nerve and lens of chronic streptozotocin-induced diabetic rats; format: in vivo, rat; conditions: 2.5 mg./kg. orally twice a day, seven days; two weeks after streptozotocin 65 mg./kg. i.v.; three hours post dose
Description: as §1
6-Fluoro-spiro-[chroman-4,4'-imidazolidine]-2',5'-dione (the product of Example XXII) was tested for its ability to reverse already-elevated sorbital levels in streptozotocininduced diabetic rats of two weeks duration (i.e., chronic) by administering said compound orally to the animals for a period of seven days. In this study, the sorbital determinations were carried out in both the sciatic nerve and the lens. Streptozotocin was first administered to the animals at 65 mg./kg., via the intravenous route. […]

[5] = tested on: galactitol formation in acutely galactosemic rats (lens); assay: inhibition of galactitol formation in the lens of acutely galactosemic rats; format: in vivo, rat; conditions: 30% galactose diet, seven days
Description: as §1
The ability of 6-fluoro-spiro-[chroman-4,4'-imidazolidine]-2',5'-dione to prevent or inhibit galactitol formation in acutely galactosemic rats was determined by administering said compound to the animals, via their feed, for a period of seven days. In this study, normal male rats were first divided into groups of six animals each and then fed a 30% galactose diet together with the compound to be administered at three different dosage levels. […]

aldose reductase = molecular target: T1, aldose reductase (Bos taurus, UniProt P16116); assay: inhibition of aldose reductase enzyme activity (procedure of S. Hayman et al., modified by K. Sestanj et al.); format: biochemical, calf
T1 construct: partially purified aldose reductose enzyme obtained from calf lens; from tissue; host or cells: calf lens
Description: as §1
Hayman et al., as described in the Journal of Biological Chemistry, Vol. 240, p. […] In every case, the substrate employed ws partially purified aldose reductose enzyme obtained from calf lens.

[6] = tested on: sorbitol levels in the sciatic nerve and lens of diabetic subjects; assay: lowering of sorbitol levels in sciatic nerve (peripheral nerves) and lens of diabetic subjects (summary statement); format: in vivo; conditions: qualitative statement
[7] = tested on: galactitol levels in the lens of galactosemic subjects; assay: lowering of galactitol levels in the lens of galactosemic subjects (summary statement); format: in vivo; conditions: qualitative statement
[8] = tested on: sorbitol levels in diabetic rats; assay: control of sorbitol formation in diabetic rats, oral route (summary statement); format: in vivo, rat; conditions: 0.75 mg./kg. to 20 mg./kg.
Description: As previously indicated, the spiro-hydantoin compounds of this invention are all readily adapted to therapeutic use as aldose reductase inhibitors for the control of chronic diabetic complications, in view of their ability to reduce lens sorbitol levels in diabetic subjects to a staistically significant degree. […] The other compounds of this invention also cause similar results. Furthermore, all the herein described compounds of this invention can be administered by either the oral or parenteral routes of administration, for the present purposes at hand, without causing any significant untoward pharmacological side reactions to occur in the subject to whom they are so administered. In general, these compounds are ordinarily administered in dosages ranging from about 0.1 mg. to about 10 mg. per kg. of body weight per day, although variations will necessarily occur depending upon the weight and condition of the subject being treated and the particular route of administration chosen.

[9] = format: physicochemical
Description: The sodium salt of 6-fluoro-spiro-[chroman-4,4'-imidazolidine]-2',5'-dione is prepared by dissolving said compound in water containing an equivalent amount in moles of sodium hydroxide and then freeze-drying the mixture.

O=C1NC(=O)C2(CCOc3ccc(F)cc32)N1 (stereo not shown) [Ex. XXII, 6-fluoro-spiro[chroman-4,4'-imidazolidine]-2',5'-dione]
Percent inhibition of sorbitol accumulation in the sciatic nerve ([1]; 0.75 mg./kg. orally at 4, 8 and 24 h after streptozotocin): 45%
Percent inhibition of sorbitol accumulation in the sciatic nerve ([1]; 1.5 mg./kg. orally at 4, 8 and 24 h after streptozotocin): 72%
lenses with area of involvement never less than 10% ([2]; 10 mg./kg.): 6%
lenses with area of involvement never less than 10% ([2]; 20 mg./kg.): 0%
severity of lenticular opacities versus control group ([2]; treated groups, including 29-day mark): always less than that found in the control group
delay in cataract formation ([3]; 20 mg./kg., 29-day mark): an impressive delay in cataract formation was still observed at the 29-day mark
eyes with lenticular opacities ([3]; 22-day mark, 10 mg./kg. in food): greater than 90%
eyes with lenticular opacities ([3]; 29-day mark, 20 mg./kg. in food): 37%
eyes with lenticular opacities ([3]; 17 days, 10 mg./kg. in food, control 100%): 6%
eyes with lenticular opacities ([3]; 17 days, 20 mg./kg. in food, control 100%): 0%
lenticular opacities in the eyes ([3]; after 8-14 days, either 10 mg./kg. or 20 mg./kg. in food, control 90% of eyes): no opacities being present
delay in cataract formation ([3]; all treated groups (10 and 20 mg./kg.)): delay in cataract formation continued in all the treated groups until the 22-day mark
reduction in sorbitol levels in the lens [4]: 71%
reduction in sorbitol levels in the sciatic nerve [4]: 68%
inhibition of galactitol values in the lens ([5]; 10 mg./kg. in feed): 40%
inhibition of galactitol values in the lens ([5]; 20 mg./kg. in feed): 72%
inhibition at 100 µM (aldose reductase; 10^-4 M, calf lens enzyme, read-out: Percent inhibition of aldose reductase enzyme activity): 84%
inhibition at 10 µM (aldose reductase; 10^-5 M, calf lens enzyme, read-out: Percent inhibition of aldose reductase enzyme activity): 58%
inhibition at 1 µM (aldose reductase; 10^-6 M, calf lens enzyme, read-out: Percent inhibition of aldose reductase enzyme activity): 52%
inhibition at 0.1 µM (aldose reductase; 10^-7 M, calf lens enzyme, read-out: Percent inhibition of aldose reductase enzyme activity): 3%
aldose reductase inhibitory activity (in words) (aldose reductase; qualitative statement): highly potent
lowering of sorbitol levels in sciatic nerve (peripheral nerves) and lens (in words) [6]: extremely effective
lowering of galactitol levels in the lens (in words) [7]: extremely effective
control (inhibition) of the formation of sorbitol levels (in words) [8]: to a significantly high degree

O=C1NC(=O)C2(CCOc3ccc(F)cc32)N1 (stereo not shown) [sodium salt of 6-fluoro-spiro-[chroman-4,4'-imidazolidine]-2',5'-dione]
solubility in water [9]: freely soluble in water
